From patent publication US20140328809A1, “METHODS OF INDUCING CHONDROGENESIS IN MESENCHYMAL STEM CELLS USING SYNTHETIC TRITERPENOIDS” (TRUSTEES OF DARTMOUTH COLLEGE, priority 2011, published 2014)

Tests used:
[1] = system: TIMP-2; assay: Quantitative RT-PCR analysis on calvaria: TIMP-2; format: cell-based, mouse; details: 7 days of culture, normalized to control = 1.00
Description: (§1) All chemicals were from Sigma-Aldrich. Primers for RT-PCR were from Applied Biosystems. The isolation of calvaria was essentially performed as described previously (Garrett, 2003; Garret et al., 2003). The calvaria were cultured in Biggers, Gwatkins, Judah medium supplemented with 1 mg/mL of bovine serum albumin (Cohn fraction V), 100 U/mL each of penicillin/streptomycin, and 0.292 mg/mL of glutaimine. On Day 1, the calvaria were treated with CDDO-Im or CDDO-EA. On Day 4, the medium was replaced with fresh medium, again containing either CDDO-Im or CDDO-EA. On Day 7, the calvaria were collected and either stored at −80° C. for further RNA analysis or fixed in 10% buffered formalin for 24 h and transferred to 80% ethanol for histological analysis.
(§2) After 7 days of culture, RNA was isolated from the calvaria and quantitative RT-PCR analysis was performed for more than 15 different markers including: SOX9 (a transcription factor specific for cartilage), collagen type II (alpha 1), all three isoforms of TGF-β, BMPs 2 and 4, BMP receptor II, Smads 3, 4, 6, and 7, tissue inhibitors of metalloproteinases (TIMP-1 and TIMP-2), and matrix metalloproteinase-9 (MMP-9). […] Both triterpenoids are strong inhibitors of the expression of MMP-9; CDDO-EA (200 nM), caused almost 80% inhibition of the expression of this metalloproteinase, which is known to be involved in the degradation of cartilage (Shinoda et al., 2008).

[2] = system: Col II alpha1; assay: Quantitative RT-PCR analysis on calvaria: Col II alpha1; format: cell-based, mouse; details: 7 days of culture, normalized to control = 1.00
Description: as §1, §2

[3] = system: TGF-β2; assay: Quantitative RT-PCR analysis on calvaria: TGF-β2; format: cell-based, mouse; details: 7 days of culture, normalized to control = 1.00
Description: as §1, §2

[4] = system: collagen type II (COL2A1); assay: Immunohistochemical analysis of collagen type II in calvaria; format: cell-based, mouse; details: 200 nM, FIG. 1b
Description: as §1
(§3) After fixation for 24 h, the calvaria were decalcified in EDTA, embedded in paraffin, and cut into 4 μm sections. The sections were stained either with modified hematoxylin and eosin or with toluidine blue (1% in 70% ethanol for 20 min, followed by destaining in 70%, 90%, and 100% ethanol for 15 seconds), placed in xylene twice, and then mounted (Garret, 2003). Procedures for immunofluroescence were performed essentially as previously described (Medici et al., 2010). […]

[5] = system: Smad7; assay: Quantitative RT-PCR analysis on calvaria: Smad7; format: cell-based, mouse; details: 7 days of culture, normalized to control = 1.00
Description: as §1, §2

[6] = system: SOX9; assay: Western blot of chondrocyte marker SOX9 in bone marrow-derived MSCs; format: cell-based, human; details: 100 nM for 7 days; MSCs in chondrogenic culture medium; not detectable in control
Description: (§4) Human bone marrow-derived stromal cells (ScienCell Research Laboratories), which contain a population of responsive mesenchymal stem cells, were grown in mesenchymal stem cell medium (ScienCell Research Laboratories). MSCs were serum-starved 24 hours prior to all experimental conditions. The synthesis of the synthetic triterpenoids, CDDO-Im and CDDO-EA, have been previously described (Sporn et al., 2011).
(§5) For directed chondrocytic differentiation, MSCs were grown in StemPro chondrogenic culture medium (Invitrogen) prepared by the technique of Kassem (2004), which is incorporated herein by reference. See also Medici et al. (2010), which is also incorporated herein by reference. CDDO-Im and CDDO-EA were added to the cultures at a concentration of 100 nM for 7 days. Western blot analysis was performed using the following antibodies at concentrations (and using protocols) recommended by the respective manufacturers: SOX9, COL2A1 (Santa Cruz Biotechnology), Aggrecan (Abcam), β-actin (Sigma-Aldrich). β-actin was used as a loading control. HRP-conjugated IgG TrueBlot reagents (eBioscience) were used at a dilution of 1:1000.

[7] = system: Aggrecan; assay: Western blot of chondrocyte marker Aggrecan in bone marrow-derived MSCs; format: cell-based, human; details: 100 nM for 7 days; MSCs in chondrogenic culture medium; not detectable in control
Description: as §4, §5

[8] = system: newborn mouse calvaria; assay: Histological analysis (toluidine blue) of chondrogenesis in newborn mouse calvarial organ cultures; format: cell-based; details: 200 nM, 7 days, FIG. 1a, at least 3 sets of replicate experiments
Description: as §1, §3

[9] = system: TGF-β3; assay: Quantitative RT-PCR analysis on calvaria: TGF-β3; format: cell-based, mouse; details: 7 days of culture, normalized to control = 1.00
Description: as §1, §2

[10] = system: COL2A1; assay: Western blot of chondrocyte marker COL2A1 in bone marrow-derived MSCs; format: cell-based, human; details: 100 nM for 7 days; MSCs in chondrogenic culture medium; not detectable in control
Description: as §4, §5

[11] = system: MMP-9; assay: Quantitative RT-PCR analysis on calvaria: MMP-9; format: cell-based, mouse; details: 7 days of culture, normalized to control = 1.00
Description: as §1, §2

[12] = system: BMPRII; assay: Quantitative RT-PCR analysis on calvaria: BMPRII; format: cell-based, mouse; details: 7 days of culture, normalized to control = 1.00
Description: as §1, §2

[13] = system: Smad3; assay: Quantitative RT-PCR analysis on calvaria: Smad3; format: cell-based, mouse; details: 7 days of culture, normalized to control = 1.00
Description: as §1, §2

[14] = system: BMP-2; assay: Quantitative RT-PCR analysis on calvaria: BMP-2; format: cell-based, mouse; details: 7 days of culture, normalized to control = 1.00
Description: as §1, §2

[15] = system: BMP-4; assay: Quantitative RT-PCR analysis on calvaria: BMP-4; format: cell-based, mouse; details: 7 days of culture, normalized to control = 1.00
Description: as §1, §2

[16] = system: Smad6; assay: Quantitative RT-PCR analysis on calvaria: Smad6; format: cell-based, mouse; details: 7 days of culture, normalized to control = 1.00
Description: as §1, §2

[17] = system: TGF-β1; assay: Quantitative RT-PCR analysis on calvaria: TGF-β1; format: cell-based, mouse; details: 7 days of culture, normalized to control = 1.00
Description: as §1, §2

[18] = system: SOX-9; assay: Quantitative RT-PCR analysis on calvaria: SOX-9; format: cell-based, mouse; details: 7 days of culture, normalized to control = 1.00
Description: as §1, §2

[19] = system: Smad4; assay: Quantitative RT-PCR analysis on calvaria: Smad4; format: cell-based, mouse; details: 7 days of culture, normalized to control = 1.00
Description: as §1, §2

[20] = system: TIMP-1; assay: Quantitative RT-PCR analysis on calvaria: TIMP-1; format: cell-based, mouse; details: 7 days of culture, normalized to control = 1.00
Description: as §1, §2

CC1(C)CC[C@]2(C(=O)n3ccnc3)CC[C@]3(C)[C@H](C(=O)C=C4[C@@]5(C)C=C(C#N)C(=O)C(C)(C)[C@@H]5CC[C@]43C)[C@@H]2C1 [CDDO-Im, CDDO-Imidazolide]
TIMP-2 expression (quantitative RT-PCR) ([1]; 50 nM): 1.24 ± 0.10 | TIMP-2 expression (quantitative RT-PCR) ([1]; 200 nM): 1.67 ± 0.19 | TIMP-2 expression (quantitative RT-PCR) ([1]; 500 nM): 2.62 ± 0.29 | Col II alpha1 expression (quantitative RT-PCR) ([2]; 50 nM): 1.45 ± 0.09 | Col II alpha1 expression (quantitative RT-PCR) ([2]; 200 nM): 1.32 ± 0.23 | Col II alpha1 expression (quantitative RT-PCR) ([2]; 500 nM): 1.72 ± 0.39 | TGF-β2 expression (quantitative RT-PCR) ([3]; 50 nM): 1.17 ± 0.05 | TGF-β2 expression (quantitative RT-PCR) ([3]; 200 nM): 1.15 ± 0.09 | TGF-β2 expression (quantitative RT-PCR) ([3]; 500 nM): 1.17 ± 0.10 | formation of collagen type II (COL2A1), red fluorescence [4]: induce the formation of collagen type II | Smad7 expression (quantitative RT-PCR) ([5]; 50 nM): 1.05 ± 0.07 | Smad7 expression (quantitative RT-PCR) ([5]; 200 nM): 1.32 ± 0.14 | Smad7 expression (quantitative RT-PCR) ([5]; 500 nM): 1.78 ± 0.18 | induction of SOX9 (Western blot) [6]: clear induction | induction of Aggrecan (Western blot) [7]: clear induction | induction of chondrogenesis (metachromatic toluidine blue purple staining, proteoglycans) [8]: marked ability to induce chondrogenesis | TGF-β3 expression (quantitative RT-PCR) ([9]; 50 nM): 1.30 ± 0.07 | TGF-β3 expression (quantitative RT-PCR) ([9]; 200 nM): 1.52 ± 0.16 | TGF-β3 expression (quantitative RT-PCR) ([9]; 500 nM): 1.66 ± 0.13 | induction of COL2A1 (Western blot) [10]: clear induction | MMP-9 expression (quantitative RT-PCR) ([11]; 50 nM): 0.73 ± 0.16 | MMP-9 expression (quantitative RT-PCR) ([11]; 200 nM): 0.44 ± 0.12 | MMP-9 expression (quantitative RT-PCR) ([11]; 500 nM): 0.26 ± 0.03 | BMPRII expression (quantitative RT-PCR) ([12]; 50 nM): 1.09 ± 0.06 | BMPRII expression (quantitative RT-PCR) ([12]; 200 nM): 1.22 ± 0.11 | BMPRII expression (quantitative RT-PCR) ([12]; 500 nM): 1.46 ± 0.14 | Smad3 expression (quantitative RT-PCR) ([13]; 50 nM): 0.97 ± 0.07 | Smad3 expression (quantitative RT-PCR) ([13]; 200 nM): 0.90 ± 0.05 | Smad3 expression (quantitative RT-PCR) ([13]; 500 nM): 1.35 ± 0.19 | BMP-2 expression (quantitative RT-PCR) ([14]; 50 nM): 1.17 ± 0.07 | BMP-2 expression (quantitative RT-PCR) ([14]; 200 nM): 1.60 ± 0.19 | BMP-2 expression (quantitative RT-PCR) ([14]; 500 nM): 3.14 ± 0.53 | BMP-4 expression (quantitative RT-PCR) ([15]; 50 nM): 0.97 ± 0.05 | BMP-4 expression (quantitative RT-PCR) ([15]; 200 nM): 0.98 ± 0.06 | BMP-4 expression (quantitative RT-PCR) ([15]; 500 nM): 1.35 ± 0.22 | Smad6 expression (quantitative RT-PCR) ([16]; 50 nM): 0.95 ± 0.05 | Smad6 expression (quantitative RT-PCR) ([16]; 200 nM): 1.23 ± 0.14 | Smad6 expression (quantitative RT-PCR) ([16]; 500 nM): 1.77 ± 0.19 | TGF-β1 expression (quantitative RT-PCR) ([17]; 50 nM): 0.96 ± 0.07 | TGF-β1 expression (quantitative RT-PCR) ([17]; 200 nM): 1.08 ± 0.12 | TGF-β1 expression (quantitative RT-PCR) ([17]; 500 nM): 1.46 ± 0.12 | SOX-9 expression (quantitative RT-PCR) ([18]; 50 nM): 1.26 ± 0.08 | SOX-9 expression (quantitative RT-PCR) ([18]; 200 nM): 1.33 ± 0.05 | SOX-9 expression (quantitative RT-PCR) ([18]; 500 nM): 1.83 ± 0.13 | Smad4 expression (quantitative RT-PCR) ([19]; 50 nM): 0.96 ± 0.06 | Smad4 expression (quantitative RT-PCR) ([19]; 200 nM): 1.03 ± 0.09 | Smad4 expression (quantitative RT-PCR) ([19]; 500 nM): 1.26 ± 0.09 | TIMP-1 expression (quantitative RT-PCR) ([20]; 50 nM): 1.43 ± 0.19 | TIMP-1 expression (quantitative RT-PCR) ([20]; 200 nM): 1.83 ± 0.18 | TIMP-1 expression (quantitative RT-PCR) ([20]; 500 nM): 3.00 ± 0.65
